This note sets out measurements from article PMC3078958 (Archives of biochemistry and biophysics, 2011).

As usually defined, the Ki is the equilibrium dissociation constant of an inhibitor or competing ligand from its target. A high value points to lower affinity.

Each structure is given as a SMILES string.

In the assay the target is T1, CsOxOx (Ceriporiopsis subvermispora bicupin oxalate oxidase, isoform-G) (Gelatoporia subvermispora, UniProt Q5ZH56).
T1 sequence (Q5ZH56 21-461): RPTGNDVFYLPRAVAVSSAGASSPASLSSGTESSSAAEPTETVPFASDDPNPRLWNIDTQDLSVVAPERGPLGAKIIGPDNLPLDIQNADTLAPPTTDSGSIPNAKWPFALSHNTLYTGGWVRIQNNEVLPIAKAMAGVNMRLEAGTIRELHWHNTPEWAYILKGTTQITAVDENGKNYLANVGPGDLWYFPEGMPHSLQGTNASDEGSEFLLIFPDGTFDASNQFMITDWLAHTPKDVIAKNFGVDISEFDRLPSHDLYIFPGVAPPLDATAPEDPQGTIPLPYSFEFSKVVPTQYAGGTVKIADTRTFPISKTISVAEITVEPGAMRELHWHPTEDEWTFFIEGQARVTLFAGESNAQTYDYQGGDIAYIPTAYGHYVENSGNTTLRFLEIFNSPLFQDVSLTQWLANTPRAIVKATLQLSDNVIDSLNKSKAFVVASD
Put plainly: continuous coupled HRP/ABTS assay of H2O2 production, […] nm. Format: biochemical.
In the case of `CC(=O)O` [acetate], the Ki stood at 3.9 ± 0.6 mM. `O=C(O)CO` [glycolate] showed a Ki of 28 ± 5 mM. Regarding `O=CC(=O)O` [glyoxylate], the Ki was found to be 15 ± 3 mM. In turn, `O=C(O)C[C@H](O)C(=O)O` [malate] displayed a Ki of 52 ± 6 mM. As for `O=C(O)CC(=O)O` [malonate], the figure is 3 ± 0.3 mM; as for `CC(=O)C(=O)O` [pyruvate], 17 ± 3 mM.
